# Tests used:
# [1] = in vivo; listed as trimetazidine, dihydrochloride; cited from earlier work
# liver failure patients [2] = experiment: Clinical trial involving 165 cases of liver failure, TMZ vs traditional therapeutic approach (general treatment); type: in vivo, human
# [3] = test system: patients with liver failure / serious hepatitis; experiment: Clinical cases: individual patients given oral TMZ on top of combined treatment; type: in vivo, human
# From the text: Case 1: The patient had past positive HBsAg for over 20 years, during which they took multiple reexaminations of liver function and, as the results of all color ultrasound examinations were within normal range, they were not given any special treatment. Three months before, after catching cold and overwork, they developed abdominal distension and yellow urine, and was admitted to hospital following aggravation of the condition over 6 days. On admission, they were complicated with massive seroperitoneum and serious xanthochromia throughout the skin and mucosa of their whole body, feeling serious nausea, anorexia and feebleness.
# Case 2: had had yellow urine for 25 days and dry mouth and bitter taste in mouth for 10 days before they came to the First Affiliated Hospital of Zhengzhou University. […] If they had been treated with the original approach, it would probably have taken two months before they could be discharged from hospital.
# Case 3: had past positive HBsAg for 8 years, without regular treatment or periodic reexamination of relevant indicators. […] They took orally some “stomach medicine” (specific medicine not known) with poor effect. After the aforesaid symptoms aggravated for half a month, with urine turning as yellow as strong tea water, they were admitted to the First Affiliated Hospital of Zhengzhou University on Jan. 21, 2015. […] In merely 12 days, the patient achieved decrease of transaminase by dozens of times, relief from the critical condition, alleviated hepatocyte inflammatory responses and a favorable condition for liver cells, and greatly shortened length of hospitalization.
# Case 4: […] They felt abdominal distension and nausea, accompanied with hydroncus in lower limbs, when they got tired half a month ago. For further treatment, they were admitted to the First Affiliated Hospital of Zhengzhou University on Jan. 13, 2015. Color ultrasound examination of abdomen detected diffuse changes of echo patterns of liver, cholecystolithiasis and cholecystitis. […] The patient's liver enzyme decreased to normal level after a short period, meeting the requirements for a surgical operation. Following the operation, their abdominal pain disappeared, with liver enzyme back to normal level and improved appetite. Their quality of life improves now without any discomfort.
# Case 5: had past positive HBsAg for over 10 years, with HBsAg (+), HBeAg (+) and HBcAb (+), and had atrial fibrillation over 5 years, during which they orally took traditional Chinese medicine intermittently, but without regular treatment. They complained of feebleness, nausea, dry mouth and bitter taste, and anorexia for 6 days, and was hospitalized on Jan. 31, 2015. After admission, they had ALT 1881 u/L, AST 699 u/L, and prothrombin time activity (PTA) at 26%. The patient was extremely weak, in very poor spirits, with very poor appetite. A notice of critical illness diagnosis was given. […] The patient achieved a rapid decrease of transaminase and obvious improvement of liver synthesis function, and was safe from the critical condition. They continued to take the medicine till maturity of the treatment course, to improve the hepatocyte microcirculation and excretion of bilirubin. The patient soon recovered and left hospital.
# liver failure patients [4] = experiment: Single-center cohort clinical trial, trimetazidine (TMZ) vs DCA control, liver function indicators ALT/AST; type: in vivo, human; conditions: after 5 days of treatment, FIG. 2
# From the text: Evaluate if trimetazidine is capable of improving the liver function of patients with hepatic failure.
# The single-center cohort study was adopted as the clinical trial method.
# In accordance with relevant references and the results of previous trails, the number of cases shall be no less than 50. Taking into account the number of loss to follow up and possible drop-out (to be controlled around 10%), 60 cases are required to be selected (30 cases for the trial group and 30 cases for the control group).
# All serious hepatitis patients enrolled between Aug. 19, 2014 and […] were put in the control group; and all those enrolled between December 9 and the application date were in the trial group.
# 2. Exclusion Criteria • Patients under 18 or over 70 years old; • patients diagnosed with shock liver (ischemic liver disease); • patients with liver failure in pregnance or HELLP syndrome; • patients with liver failure secondary to malignant tumor in the liver; • patients with refractory hypotension • patients with septic shock; • patients about to receive liver transplant (within 8 hours); • patients allergic to trimetazidine drug; • patients […] of trimetazidine drug; • abuser of drugs and/or alcohol; • pregnant or lactation women; • patients with recent myocardial infarct (within half a year); • patients with serious renal inadequacy.
# 2. Control group: Diisopropylamine Dichloroacetate (DCA) (80 mg/D) for the control group in this trial, provided by Dandong Yichuang Pharmaceutical Co., Ltd, for a 4-week course of treatment.
# 3. […] HBV-related liver failure patients were also treated with lamivudine.
# 1. Alanine aminotransferase (ALT), tested by chromatometry, with products provided by Roche Diagnostics (Shanghai) Ltd.
# 2. Aspartate transaminase (AST), tested by chromatometry, with products provided by Roche Diagnostics (Shanghai) Ltd.
# [5] = Case 5, one week plus another 5 days of TMZ
compound,measurement,setting,value
"COc1ccc(CN2CCNCC2)c(OC)c1OC.Cl.Cl [TMZ, 1-[2,3,4-trimethoxybenzyl] piperazine dihydrochloride]",elimination half-life,[1],approximately 6 hours
same,30-day immortality rate,"liver failure patients [2]; TMZ 20 mg tablet orally 3 times a day, 4 weeks, traditional therapeutic approach 44%, FIG. 5",approximately 18%
same,90-day immortality rate,"liver failure patients [2]; TMZ 20 mg tablet orally 3 times a day, 4 weeks, traditional therapeutic approach 68%, FIG. 5",35%
same,decrease rate of alanine aminotransferase and aspartate transaminase,"liver failure patients [2]; laboratory test indicators, FIG. 3",significantly raise the decrease rate
same,serious adverse reaction during the clinical trial,liver failure patients [2]; liver failure patients,no serious adverse reaction occurred
same,hepatic glucose metabolism (PET-CT),"liver failure patients [2]; one liver failure patient, before vs after taking TMZ, FIG. 4",remarkably improved
same,AST,"[3]; Case 1, 12 days after start of TMZ, on admission AST 303 u/L",68 u/L
same,ALT,"[3]; Case 1, HBsAg positive, 12 days after start of TMZ 1 tablet 3 times a day, on admission ALT 270 u/L",41 u/L
same,total bilirubin,"[3]; Case 2, oral TMZ for 20 days, on admission 401.9 umol/L",130 µmol/L
same,AST,"[3]; Case 2, oral TMZ for 20 days, on admission AST 484 u/L",52 u/L
same,ALT,"[3]; Case 2, serious drug-induced hepatitis, oral TMZ for 20 days, on admission ALT 983 u/L",95 u/L
same,ALT,"[3]; Case 3, acute-on-chronic liver failure, admitted Jan. 21, 2015, reexamination February 5, on admission ALT 1386 u/L",76 u/L
same,prothrombin time activity (PTA),"[3]; Case 3, reexamination February 5, on admission 27.4%",57.8%
same,AST,"[3]; Case 3, reexamination February 5, on admission AST 1368 u/L",85 u/L
same,ALT,"[3]; Case 4, HBsAg positive, oral TMZ for 13 days, on admission ALT 599 u/L",66 u/L
same,AST,"[3]; Case 4, oral TMZ for 13 days, on admission AST 663 u/L",79 u/L
same,prothrombin time activity (PTA),"[3]; Case 5, one week after start of oral TMZ, after admission 26%",48%
same,ALT,"[3]; Case 5, one week after start of oral TMZ, after admission ALT 1881 u/L",255 u/L
same,AST,"[3]; Case 5, one week after start of oral TMZ, after admission AST 699 u/L",77 u/L
same,ALT,[3]; [5],117 u/L
same,AST,[3]; [5],226 u/L
same,prothrombin time activity (PTA),[3]; [5],50%
same,"ALT decrease (k, mathematical model analysis)",liver failure patients [4],259.4
same,"AST decrease (k, mathematical model analysis)",liver failure patients [4],362.53
Diisopropylamine Dichloroacetate [DCA],"ALT decrease (k, mathematical model analysis)",liver failure patients [4],67.325
same,"AST decrease (k, mathematical model analysis)",liver failure patients [4],142.77
